From the kinase profiling compilation of Christmann-Franck et al. (2016)

Experiments:
Assay in all cases: radiometric filter-binding kinase assay
[1] = molecular target: MAPKAPK3 (human) (UniProt Q16644); settings: compound 100.0 µM; ATP 20 µM
[2] = molecular target: TTK (human) (UniProt P33981); settings: compound 100.0 µM; ATP 20 µM
[3] = molecular target: SRPK1 (human) (UniProt Q96SB4); settings: compound 100.0 µM; ATP 50 µM
[4] = molecular target: ABL1 (human) (UniProt P00519); settings: compound 100.0 µM; ATP 5 µM
[5] = molecular target: MAPKAPK5 (human) (UniProt Q8IW41); settings: compound 100.0 µM; ATP 20 µM
[6] = molecular target: MKNK2 (human) (UniProt Q9HBH9); settings: compound 100.0 µM; ATP 50 µM
[7] = tested on: AKT2 (human), P31751 [S474D]; settings: compound 100.0 µM; ATP 50 µM
[8] = molecular target: MAPK1 (human) (UniProt P28482); settings: compound 100.0 µM; ATP 20 µM
[9] = molecular target: RPS6KA5 KD1 KD2 (human) (UniProt O75582); settings: compound 100.0 µM; ATP 20 µM
[10] = molecular target: MAPK14 (human) (UniProt Q16539); settings: compound 100.0 µM; ATP 50 µM
[11] = molecular target: INSRR (human) (UniProt P14616); settings: compound 100.0 µM; ATP 5 µM
[12] = molecular target: INSR (human) (UniProt P06213); settings: compound 100.0 µM; ATP 20 µM
[13] = molecular target: CSNK2A1 (human) (UniProt P68400); settings: compound 100.0 µM; ATP 5 µM
[14] = molecular target: YES1 (human) (UniProt P07947); settings: compound 100.0 µM; ATP 20 µM
[15] = molecular target: MELK (human) (UniProt Q14680); settings: compound 100.0 µM; ATP 50 µM
[16] = tested on: PAK2 (human), Q13177 [T402E]; settings: compound 100.0 µM; ATP 20 µM
[17] = molecular target: MAP3K11 (human) (UniProt Q16584); settings: compound 100.0 µM; ATP 20 µM
[18] = molecular target: FLT1 (human) (UniProt P17948); settings: compound 100.0 µM; ATP 20 µM
[19] = molecular target: MAPK13 (human) (UniProt O15264); settings: compound 100.0 µM; ATP 5 µM
[20] = molecular target: CHEK2 (human) (UniProt O96017); settings: compound 100.0 µM; ATP 20 µM
[21] = molecular target: HIPK2 (human) (UniProt Q9H2X6); settings: compound 100.0 µM; ATP 5 µM
[22] = molecular target: RPS6KA3 KD1 KD2 (human) (UniProt P51812); settings: compound 100.0 µM; ATP 50 µM
[23] = molecular target: IGF1R (human) (UniProt P08069); settings: compound 100.0 µM; ATP 5 µM
[24] = molecular target: MAPK9 (human) (UniProt P45984); settings: compound 100.0 µM; ATP 20 µM
[25] = molecular target: IKBKB (human) (UniProt O14920); settings: compound 100.0 µM; ATP 5 µM
[26] = molecular target: PAK4 (human) (UniProt O96013); settings: compound 100.0 µM; ATP 5 µM
[27] = molecular target: PIM2 (human) (UniProt Q9P1W9); settings: compound 100.0 µM; ATP 5 µM
[28] = tested on: SGK1 (human), O00141 [S422D]; settings: compound 100.0 µM; ATP 20 µM
[29] = molecular target: MAPK3 (human) (UniProt P27361); settings: compound 100.0 µM; ATP 5 µM
[30] = molecular target: CDK2 CCNA2 (human) (UniProt P20248+P24941); settings: compound 100.0 µM; ATP 20 µM
[31] = molecular target: JAK2 JH1 JH2 (human) (UniProt O60674); settings: compound 100.0 µM; ATP 5 µM
[32] = molecular target: PKN2 (human) (UniProt Q16513); settings: compound 100.0 µM; ATP 5 µM
[33] = molecular target: NEK2 (human) (UniProt P51955); settings: compound 100.0 µM; ATP 50 µM
[34] = molecular target: MINK1 (human) (UniProt Q8N4C8); settings: compound 100.0 µM; ATP 50 µM
[35] = molecular target: DYRK2 (human) (UniProt Q92630); settings: compound 100.0 µM; ATP 50 µM
[36] = molecular target: EPHB2 (human) (UniProt P29323); settings: compound 100.0 µM; ATP 20 µM
[37] = molecular target: ZAP70 (human) (UniProt P43403); settings: compound 100.0 µM; ATP 5 µM
[38] = molecular target: STK11 CAB39 STRADA (human) (UniProt Q9Y376+Q7RTN6+Q15831); settings: compound 100.0 µM; ATP 20 µM
[39] = molecular target: PDPK1 (human) (UniProt O15530); settings: compound 100.0 µM
Chain of PDPK1 (human) (O15530 whole entry, looked up): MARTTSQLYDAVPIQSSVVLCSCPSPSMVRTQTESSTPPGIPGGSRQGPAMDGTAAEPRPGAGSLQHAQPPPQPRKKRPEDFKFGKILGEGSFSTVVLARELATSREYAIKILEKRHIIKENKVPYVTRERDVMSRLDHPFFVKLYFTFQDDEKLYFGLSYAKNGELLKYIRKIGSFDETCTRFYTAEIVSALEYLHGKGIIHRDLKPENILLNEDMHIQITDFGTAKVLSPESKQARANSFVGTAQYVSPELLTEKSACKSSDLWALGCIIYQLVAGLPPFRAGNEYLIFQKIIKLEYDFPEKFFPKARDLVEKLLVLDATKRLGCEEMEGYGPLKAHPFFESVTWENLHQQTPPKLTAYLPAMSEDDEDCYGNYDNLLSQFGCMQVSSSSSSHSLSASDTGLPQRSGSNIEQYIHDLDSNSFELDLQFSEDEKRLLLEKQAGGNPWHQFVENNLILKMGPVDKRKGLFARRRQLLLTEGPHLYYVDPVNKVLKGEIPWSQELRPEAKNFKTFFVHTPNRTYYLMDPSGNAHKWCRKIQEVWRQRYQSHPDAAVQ

Chain of YES1 (human) (P07947 whole entry, looked up): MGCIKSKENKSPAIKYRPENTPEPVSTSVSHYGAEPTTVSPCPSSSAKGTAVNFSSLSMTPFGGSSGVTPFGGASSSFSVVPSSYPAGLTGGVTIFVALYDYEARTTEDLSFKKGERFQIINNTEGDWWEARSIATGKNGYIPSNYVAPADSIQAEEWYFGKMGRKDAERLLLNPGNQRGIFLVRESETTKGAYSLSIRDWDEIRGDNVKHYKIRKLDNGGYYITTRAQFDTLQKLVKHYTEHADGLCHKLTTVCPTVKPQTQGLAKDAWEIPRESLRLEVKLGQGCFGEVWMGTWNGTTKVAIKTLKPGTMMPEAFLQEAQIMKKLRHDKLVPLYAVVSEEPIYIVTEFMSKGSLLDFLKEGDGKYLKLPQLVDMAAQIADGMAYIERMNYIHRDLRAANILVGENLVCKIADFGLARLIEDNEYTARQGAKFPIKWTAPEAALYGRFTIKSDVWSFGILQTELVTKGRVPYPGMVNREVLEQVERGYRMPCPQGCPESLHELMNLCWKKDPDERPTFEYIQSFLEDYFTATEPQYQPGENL
Chain of INSRR (human) (P14616 whole entry, looked up): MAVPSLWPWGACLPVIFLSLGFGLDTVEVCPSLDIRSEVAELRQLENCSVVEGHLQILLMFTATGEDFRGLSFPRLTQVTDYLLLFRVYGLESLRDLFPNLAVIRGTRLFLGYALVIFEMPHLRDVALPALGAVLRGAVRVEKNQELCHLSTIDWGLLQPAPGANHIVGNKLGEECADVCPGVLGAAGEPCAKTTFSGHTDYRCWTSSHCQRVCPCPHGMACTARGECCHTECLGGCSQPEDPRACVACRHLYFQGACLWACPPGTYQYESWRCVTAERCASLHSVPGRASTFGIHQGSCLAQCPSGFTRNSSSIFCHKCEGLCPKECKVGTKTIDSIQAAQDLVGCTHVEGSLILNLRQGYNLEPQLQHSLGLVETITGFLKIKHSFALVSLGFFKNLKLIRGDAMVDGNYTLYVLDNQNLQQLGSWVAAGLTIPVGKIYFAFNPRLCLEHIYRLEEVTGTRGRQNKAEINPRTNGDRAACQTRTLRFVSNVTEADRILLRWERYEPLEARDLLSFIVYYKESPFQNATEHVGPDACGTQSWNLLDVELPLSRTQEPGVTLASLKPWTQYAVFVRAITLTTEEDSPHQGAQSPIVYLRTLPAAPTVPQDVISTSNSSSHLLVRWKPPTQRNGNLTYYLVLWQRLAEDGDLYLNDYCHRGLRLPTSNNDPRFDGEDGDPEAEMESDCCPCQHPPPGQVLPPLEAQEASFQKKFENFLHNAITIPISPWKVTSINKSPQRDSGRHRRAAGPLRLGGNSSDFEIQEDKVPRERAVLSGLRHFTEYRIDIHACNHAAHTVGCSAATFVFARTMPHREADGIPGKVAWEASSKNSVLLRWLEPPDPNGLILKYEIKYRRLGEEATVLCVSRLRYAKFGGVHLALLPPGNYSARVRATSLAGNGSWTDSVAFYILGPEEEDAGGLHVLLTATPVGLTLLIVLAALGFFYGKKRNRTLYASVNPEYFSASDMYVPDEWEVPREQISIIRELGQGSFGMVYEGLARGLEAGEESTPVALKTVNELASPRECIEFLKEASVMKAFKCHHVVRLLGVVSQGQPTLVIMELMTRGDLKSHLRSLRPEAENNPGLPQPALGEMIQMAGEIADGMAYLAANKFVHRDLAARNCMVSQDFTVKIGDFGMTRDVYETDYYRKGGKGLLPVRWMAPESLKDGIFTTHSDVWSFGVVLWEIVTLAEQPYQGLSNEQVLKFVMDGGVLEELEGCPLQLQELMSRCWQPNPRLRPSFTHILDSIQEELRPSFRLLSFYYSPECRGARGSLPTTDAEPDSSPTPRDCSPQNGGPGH
Chain of MAPK9 (human) (P45984 whole entry, looked up): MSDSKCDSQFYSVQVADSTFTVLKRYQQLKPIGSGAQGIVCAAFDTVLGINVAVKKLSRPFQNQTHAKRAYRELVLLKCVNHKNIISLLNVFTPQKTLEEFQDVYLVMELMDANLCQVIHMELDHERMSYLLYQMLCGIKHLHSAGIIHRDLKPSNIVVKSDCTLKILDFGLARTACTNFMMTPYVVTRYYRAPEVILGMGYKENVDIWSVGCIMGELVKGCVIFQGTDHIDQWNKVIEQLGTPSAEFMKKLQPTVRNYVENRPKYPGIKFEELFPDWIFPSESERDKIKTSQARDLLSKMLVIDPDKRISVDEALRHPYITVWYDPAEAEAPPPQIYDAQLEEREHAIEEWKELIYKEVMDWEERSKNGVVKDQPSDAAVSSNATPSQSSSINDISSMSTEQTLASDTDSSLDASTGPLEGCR
Chain of PKN2 (human) (Q16513 whole entry, looked up): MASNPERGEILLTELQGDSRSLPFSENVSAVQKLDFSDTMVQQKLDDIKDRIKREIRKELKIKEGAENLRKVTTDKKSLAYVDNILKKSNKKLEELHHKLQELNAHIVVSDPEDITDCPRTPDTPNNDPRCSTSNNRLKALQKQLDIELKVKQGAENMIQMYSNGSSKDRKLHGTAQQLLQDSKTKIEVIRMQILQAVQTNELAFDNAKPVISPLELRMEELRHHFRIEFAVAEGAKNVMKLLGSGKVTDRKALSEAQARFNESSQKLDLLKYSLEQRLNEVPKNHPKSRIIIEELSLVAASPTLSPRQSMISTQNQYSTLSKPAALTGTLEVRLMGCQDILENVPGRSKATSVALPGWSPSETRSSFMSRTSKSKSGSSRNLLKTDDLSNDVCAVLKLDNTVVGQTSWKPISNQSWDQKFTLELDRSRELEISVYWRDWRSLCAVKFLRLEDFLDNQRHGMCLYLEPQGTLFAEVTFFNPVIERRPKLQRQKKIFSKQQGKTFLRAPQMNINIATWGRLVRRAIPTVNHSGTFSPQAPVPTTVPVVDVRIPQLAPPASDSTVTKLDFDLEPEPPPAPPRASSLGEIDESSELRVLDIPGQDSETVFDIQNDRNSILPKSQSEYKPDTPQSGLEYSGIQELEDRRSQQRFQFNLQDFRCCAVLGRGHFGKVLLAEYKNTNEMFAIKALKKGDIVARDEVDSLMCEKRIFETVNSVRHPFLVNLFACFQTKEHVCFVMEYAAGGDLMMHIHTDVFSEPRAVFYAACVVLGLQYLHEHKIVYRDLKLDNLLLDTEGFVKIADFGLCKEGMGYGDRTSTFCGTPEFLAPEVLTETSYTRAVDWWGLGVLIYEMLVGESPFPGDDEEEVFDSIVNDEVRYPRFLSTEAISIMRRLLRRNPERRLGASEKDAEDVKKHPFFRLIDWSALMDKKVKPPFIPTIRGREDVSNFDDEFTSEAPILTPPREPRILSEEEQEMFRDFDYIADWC
Chain of MAPKAPK5 (human) (Q8IW41 whole entry, looked up): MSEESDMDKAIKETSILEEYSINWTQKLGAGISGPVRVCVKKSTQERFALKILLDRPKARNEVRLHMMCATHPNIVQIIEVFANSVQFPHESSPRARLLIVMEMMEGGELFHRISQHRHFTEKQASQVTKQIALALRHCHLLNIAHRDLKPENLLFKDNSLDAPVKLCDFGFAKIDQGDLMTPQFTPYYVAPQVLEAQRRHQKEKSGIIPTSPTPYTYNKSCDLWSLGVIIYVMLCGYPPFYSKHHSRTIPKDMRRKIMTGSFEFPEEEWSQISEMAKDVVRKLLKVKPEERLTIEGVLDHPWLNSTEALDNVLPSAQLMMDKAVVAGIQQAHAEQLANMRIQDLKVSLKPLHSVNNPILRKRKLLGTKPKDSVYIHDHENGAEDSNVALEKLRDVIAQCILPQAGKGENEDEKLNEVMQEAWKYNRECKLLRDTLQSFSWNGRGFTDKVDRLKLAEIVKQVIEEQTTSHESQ
Chain of CSNK2A1 (human) (P68400 whole entry, looked up): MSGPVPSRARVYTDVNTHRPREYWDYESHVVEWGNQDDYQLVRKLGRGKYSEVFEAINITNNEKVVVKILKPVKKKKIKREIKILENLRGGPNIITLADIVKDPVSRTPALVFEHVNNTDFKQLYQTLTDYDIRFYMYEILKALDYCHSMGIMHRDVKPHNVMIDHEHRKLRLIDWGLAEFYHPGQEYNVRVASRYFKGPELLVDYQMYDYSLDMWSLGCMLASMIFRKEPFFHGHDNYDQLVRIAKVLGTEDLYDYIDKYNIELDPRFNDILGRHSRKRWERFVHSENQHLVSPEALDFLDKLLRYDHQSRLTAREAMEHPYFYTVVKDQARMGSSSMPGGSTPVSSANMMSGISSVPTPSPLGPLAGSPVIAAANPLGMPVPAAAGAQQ
Chain of MAPK3 (human) (P27361 whole entry, looked up): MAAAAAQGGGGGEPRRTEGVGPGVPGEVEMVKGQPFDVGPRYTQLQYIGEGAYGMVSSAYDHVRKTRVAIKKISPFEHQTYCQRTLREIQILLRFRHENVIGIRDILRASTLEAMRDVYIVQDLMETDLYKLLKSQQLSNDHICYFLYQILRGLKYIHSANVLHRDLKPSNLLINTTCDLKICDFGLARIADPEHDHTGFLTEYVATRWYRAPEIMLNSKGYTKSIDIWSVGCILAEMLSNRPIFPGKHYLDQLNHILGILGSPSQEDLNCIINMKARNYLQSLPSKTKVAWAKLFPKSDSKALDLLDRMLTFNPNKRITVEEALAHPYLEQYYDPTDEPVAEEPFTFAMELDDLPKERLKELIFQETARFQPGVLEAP

inhibition [1]: 33%
inhibition [2]: 0%
inhibition [3]: 14%
inhibition [4]: 4%
inhibition [5]: 17%
inhibition [6]: 25%
inhibition [7]: 14%
inhibition [8]: 10%
inhibition [9]: 4%
inhibition [10]: 2%
inhibition [11]: 11%
inhibition [12]: 11%
inhibition [13]: 11%
inhibition [14]: 11%
inhibition [15]: 2%
inhibition [16]: 12%
inhibition [17]: 40%
inhibition [18]: 31%
inhibition [19]: 0%
inhibition [20]: 32%
inhibition [21]: 7%
inhibition [22]: 10%
inhibition [23]: 0%
inhibition [24]: 11%
inhibition [25]: 0%
inhibition [26]: 20%
inhibition [27]: 9%
inhibition [28]: 1%
inhibition [29]: 10%
inhibition [30]: 0%
inhibition [31]: 9%
inhibition [32]: 0%
inhibition [33]: 6%
inhibition [34]: 25%
inhibition [35]: 19%
inhibition [36]: 14%
inhibition [37]: 9%
inhibition [38]: 0%
inhibition ([39]; ATP 20 µM): 14%
inhibition ([39]; ATP 50 µM): 4%
Compound: O=C(Nc1cnc2[nH]ccn2c1=O)c1ccccc1
